From the supplement of paper PMC10307832

compound: O=C(c1cc(Cc2n[nH]c(=O)c3ccccc23)ccc1F)N1CCN(C(=O)C2CC2)CC1 [Olaparib] + C[C@@H](Oc1cc(-c2cnn(C3CCNCC3)c2)cnc1N)c1c(Cl)ccc(F)c1Cl [Crizotinib] (partner 1 µM); assay: relative viability (nuclei count vs DMSO), 5 days (fraction); higher = more cells survive; settings: first compound 0.08 µM
In short: (§1)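 Nuclei were stained with Hoechst during a one-step fixation (final 0.05% Triton X-100, 1% formaldehyde, 1 ug/ml Hoechst) carried out 5 days after dosing, then counted on 4× images. The cells, lung cancer lines in 1536-well plates, had been dosed by pin tool the day after seeding with one drug alone or a fixed anchor-drug dose plus five library-drug doses (not always all listed) in √10 steps. Relative viability is the nuclei count in treated wells divided by that in vehicle wells, and each value is the median of duplicate plates.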

Cell Line | relative viability
201T | 1.01
A549 | 0.884
A-427 | 0.958
ABC-1 | 1.57
BEN | 0.856
CAL-12T | 0.917
COR-L23 | 0.852
COR-L 105 | 0.866
Calu-6 | 1.08
ChaGo-K-1 | 1.26
EBC-1 | 0.206
EKVX | 1.13
EMC-BAC-2 | 0.767
EPLC-272H | 1.06
H3255 | 0.901
HARA | 1.04
HCC-15 | 0.96

Cell Line | relative viability
HCC-44 | 0.914
HCC-78 | 0.395
HCC-366 | 0.517
IA-LM | 1.14
NCI-H520 | 0.739
NCI-H661 | 1.06
NCI-H1299 | 1.06
NCI-H1563 | 0.867
NCI-H1650 | 1.13
NCI-H1703 | 1.07
NCI-H2009 | 1.19
NCI-H2023 | 0.789
NCI-H2228 | 0.603
SK-LU-1 | 1.15
SK-MES-1 | 0.982
SW 1573 | 0.788
UMC-11 | 0.757

same assay, conditions: first compound 0.253 µM

Cell Line | relative viability
201T | 1
A549 | 0.654
A-427 | 0.882
ABC-1 | 1.04
BEN | 0.82
CAL-12T | 0.575
COR-L23 | 0.58
COR-L 105 | 0.668
Calu-6 | 0.662
ChaGo-K-1 | 1.06
EBC-1 | 0.178
EKVX | 0.831
EMC-BAC-2 | 0.727
EPLC-272H | 0.751
H3255 | 0.913
HARA | 0.93
HCC-15 | 0.75

Cell Line | relative viability
HCC-44 | 0.729
HCC-78 | 0.356
HCC-366 | 0.473
IA-LM | 0.877
NCI-H520 | 0.695
NCI-H661 | 0.969
NCI-H1299 | 0.903
NCI-H1563 | 0.813
NCI-H1650 | 0.864
NCI-H1703 | 0.734
NCI-H2009 | 0.999
NCI-H2023 | 0.661
NCI-H2228 | 0.437
SK-LU-1 | 0.774
SK-MES-1 | 0.89
SW 1573 | 0.768
UMC-11 | 0.502

same assay, conditions: first compound 2.53 µM

Cell Line | relative viability
201T | 1.01
A549 | 0.777
A-427 | 0.705
ABC-1 | 1.19
BEN | 1
CAL-12T | 0.95
COR-L23 | 0.515
COR-L 105 | 0.621
Calu-6 | 0.74
ChaGo-K-1 | 1.31
EBC-1 | 0.203
EKVX | 1.08
EMC-BAC-2 | 0.638
EPLC-272H | 1.07
H3255 | 0.885
HARA | 1.08
HCC-15 | 0.851

Cell Line | relative viability
HCC-44 | 0.841
HCC-78 | 0.396
HCC-366 | 0.238
IA-LM | 0.583
NCI-H520 | 0.781
NCI-H661 | 0.944
NCI-H1299 | 0.986
NCI-H1563 | 0.896
NCI-H1650 | 1.15
NCI-H1703 | 0.903
NCI-H2009 | 1.06
NCI-H2023 | 0.658
NCI-H2228 | 0.473
SK-LU-1 | 0.801
SK-MES-1 | 0.885
SW 1573 | 0.601
UMC-11 | 0.492

same assay, conditions: first compound 8 µM

Cell Line | relative viability
201T | 0.973
A549 | 0.358
A-427 | 0.71
ABC-1 | 0.961
BEN | 0.931
CAL-12T | 0.572
COR-L23 | 0.274
COR-L 105 | 0.522
Calu-6 | 0.573
ChaGo-K-1 | 0.862
EBC-1 | 0.186
EKVX | 0.98
EMC-BAC-2 | 0.603
EPLC-272H | 0.864
H3255 | 0.814
HARA | 0.803
HCC-15 | 0.69

Cell Line | relative viability
HCC-44 | 0.825
HCC-78 | 0.368
HCC-366 | 0.145
IA-LM | 0.54
NCI-H520 | 0.477
NCI-H661 | 0.849
NCI-H1299 | 0.95
NCI-H1563 | 0.826
NCI-H1650 | 0.965
NCI-H1703 | 0.522
NCI-H2009 | 1.01
NCI-H2023 | 0.574
NCI-H2228 | 0.362
SK-LU-1 | 0.621
SK-MES-1 | 0.668
SW 1573 | 0.57
UMC-11 | 0.265

compound: O=C(c1cc(Cc2n[nH]c(=O)c3ccccc23)ccc1F)N1CCN(C(=O)C2CC2)CC1 [Olaparib] + NC(=O)Nc1cc(-c2cccc(F)c2)sc1C(=O)N[C@H]1CCCNC1 [AZD7762] (partner 0.2 µM); assay: as above; settings: first compound 0.08 µM
In short: as §1

Cell Line | relative viability
201T | 0.641
A-427 | 0.786
ABC-1 | 0.799
BEN | 0.638
CAL-12T | 0.757
ChaGo-K-1 | 0.955
EKVX | 0.81
EMC-BAC-2 | 1.25
EPLC-272H | 0.289
H3255 | 1.04
HARA | 0.302
HCC-15 | 1.24
HCC-44 | 1.01
HCC-78 | 0.839
HCC-366 | 0.258
NCI-H522 | 0.974
NCI-H1395 | 0.429
NCI-H1648 | 0.831
NCI-H1703 | 0.119
NCI-H2342 | 0.544
SW 900 | 0.652

same assay, conditions: first compound 0.253 µM

Cell Line | relative viability
201T | 0.609
A-427 | 0.671
ABC-1 | 0.75
BEN | 0.571
CAL-12T | 0.555
ChaGo-K-1 | 0.785
EKVX | 0.618
EMC-BAC-2 | 1.08
EPLC-272H | 0.163
H3255 | 0.823
HARA | 0.43
HCC-15 | 1.11
HCC-44 | 1
HCC-78 | 0.664
HCC-366 | 0.196
NCI-H522 | 0.896
NCI-H1395 | 0.334
NCI-H1648 | 0.75
NCI-H1703 | 0.193
NCI-H2342 | 0.4
SW 900 | 0.637

same assay, conditions: first compound 2.53 µM

Cell Line | relative viability
201T | 0.522
A-427 | 0.579
ABC-1 | 0.842
BEN | 0.727
CAL-12T | 0.726
ChaGo-K-1 | 0.811
EKVX | 0.782
EMC-BAC-2 | 1.08
EPLC-272H | 0.176
H3255 | 0.852
HARA | 0.251
HCC-15 | 1.23
HCC-44 | 1.03
HCC-78 | 0.672
HCC-366 | 0.168
NCI-H522 | 0.809
NCI-H1395 | 0.384
NCI-H1703 | 0.143
NCI-H2342 | 0.439
SW 900 | 0.584

same assay, conditions: first compound 8 µM

Cell Line | relative viability
201T | 0.383
A-427 | 0.427
ABC-1 | 0.691
BEN | 0.664
CAL-12T | 0.544
ChaGo-K-1 | 0.626
EKVX | 0.741
EMC-BAC-2 | 0.91
EPLC-272H | 0.114
H3255 | 0.933
HARA | 0.206
HCC-15 | 1.08
HCC-44 | 1.07
HCC-78 | 0.737
HCC-366 | 0.0718
NCI-H522 | 0.705
NCI-H1395 | 0.359
NCI-H1648 | 0.544
NCI-H1703 | 0.141
NCI-H2342 | 0.474
SW 900 | 0.555

compound: O=C(c1cc(Cc2n[nH]c(=O)c3ccccc23)ccc1F)N1CCN(C(=O)C2CC2)CC1 [Olaparib] + Cc1nc(NC(=O)N2CCC[C@H]2C(N)=O)sc1-c1ccnc(C(C)(C)C(F)(F)F)c1 [Alpelisib] (partner 2 µM); assay: as above; settings: first compound 0.08 µM
In short: as §1

Cell Line | relative viability
201T | 0.985
A549 | 0.822
A-427 | 1.14
ABC-1 | 0.958
BEN | 1.02
CAL-12T | 1.79
COR-L23 | 0.811
COR-L 105 | 1.17
Calu-6 | 1.08
EBC-1 | 0.901
EKVX | 1.11
EMC-BAC-2 | 0.737
EPLC-272H | 1.03
H3255 | 0.751
HARA | 0.935
HCC-15 | 0.988
HCC-44 | 0.89

Cell Line | relative viability
HCC-78 | 0.424
HCC-366 | 0.392
IA-LM | 0.929
NCI-H520 | 1.05
NCI-H661 | 0.87
NCI-H1299 | 1.03
NCI-H1395 | 1
NCI-H1563 | 1.04
NCI-H1703 | 0.45
NCI-H2009 | 1.28
NCI-H2023 | 0.64
NCI-H2228 | 0.746
SK-LU-1 | 1.14
SK-MES-1 | 0.925
SW 1573 | 0.715
UMC-11 | 1.08

same assay, conditions: first compound 0.253 µM

Cell Line | relative viability
201T | 0.938
A549 | 0.63
A-427 | 1.06
ABC-1 | 1
BEN | 1.02
CAL-12T | 1.03
COR-L23 | 0.586
COR-L 105 | 1.02
Calu-6 | 1.04
EBC-1 | 0.794
EKVX | 0.872
EMC-BAC-2 | 0.751
EPLC-272H | 0.871
H3255 | 0.752
HARA | 0.728
HCC-15 | 0.815
HCC-44 | 0.721

Cell Line | relative viability
HCC-78 | 0.328
HCC-366 | 0.31
IA-LM | 0.738
NCI-H520 | 0.843
NCI-H661 | 0.511
NCI-H1299 | 1
NCI-H1395 | 0.748
NCI-H1563 | 0.952
NCI-H1703 | 0.464
NCI-H2009 | 1.03
NCI-H2023 | 0.512
NCI-H2228 | 0.657
SK-LU-1 | 0.859
SK-MES-1 | 0.764
SW 1573 | 0.667
UMC-11 | 0.877

same assay, conditions: first compound 2.53 µM

Cell Line | relative viability
201T | 1.01
A549 | 0.671
A-427 | 0.855
ABC-1 | 0.96
BEN | 1.19
CAL-12T | 1.25
COR-L23 | 0.532
COR-L 105 | 0.87
Calu-6 | 0.965
EBC-1 | 0.68
EKVX | 0.844
EMC-BAC-2 | 0.636
EPLC-272H | 1.09
H3255 | 0.652
HARA | 0.959
HCC-15 | 0.905
HCC-44 | 0.914
HCC-78 | 0.445
HCC-366 | 0.3
IA-LM | 0.76
NCI-H520 | 0.814
NCI-H661 | 0.618
NCI-H1299 | 1.07
NCI-H1395 | 0.662
NCI-H1563 | 0.929
NCI-H1703 | 0.391
NCI-H2009 | 1.09
